# According to patent US20230218559A1, “Compositions and Methods for Treating Aging and Age-Related Diseases and Symptoms” (The Regents of the University of California, priority 2014, published 2023):
# How the values were obtained:
# [1] = system: A549; test: Cell growth assay; assay type: cell-based, human; settings: data not shown
# Procedure: (§1) Cells were seeded in 12-well plates and after overnight incubation were treated with indicated concentrations of each compound. After harvesting, cells were stained by Acridine Orange (AO) and DAPI. Cell number and viability were measured based on AO and DAPI fluorescence measured by NC3000 (Chemometec) following the manufacturer's instructions.
# [2] = system: HEK 293 cells; test: Cell growth assay; assay type: cell-based, human; settings: data not shown
# Procedure: as §1
# [3] = system: Jurkat; test: Cell growth assay; assay type: cell-based, human; settings: data not shown
# Procedure: as §1
# [4] = system: normal human diploid fibroblasts WI-38; test: Cell growth assay; assay type: cell-based; settings: data not shown
# Procedure: as §1
# [5] = target: T1, ATP synthase (Complex V) (Mus musculus, UniProt P56480); test: Mitochondrial coupling assay / respiratory control ratio; assay type: biochemical; settings: mouse liver mitochondria
# T1 construct: Mitochondria were isolated from mouse liver as described above; from tissue; host or cells: isolated mouse liver mitochondria
# Procedure: Mitochondrial RCR was analyzed using isolated mouse liver mitochondria (see Brand, et al. Biochem J 435, 297-312 (2011) and references therein). Mitochondria were isolated from mouse liver as described above. The final mitochondrial pellet was resuspended in 30 μl of MAS buffer (70 mM sucrose, 220 mM mannitol, 10 mM KH2PO4, 5 mM MgCl2, 2 mM HEPES, 1 mM EGTA, and 0.2% fatty acid free BSA, pH 7.2).
# Isolated mitochondrial respiration was measured by running coupling and electron flow assays as described (Rogers, et al. PLoS One 6, e21746 (2011)). For the coupling assay, 20 μg of mitochondria in complete MAS buffer (MAS buffer supplemented with 10 mM succinate and 2μM rotenone) were seeded into a XF24 Seahorse plate by centrifugation at 2,000×g for 20 minutes at 4° C. […] Mitochondrial respiration begins in a coupled State 2; State 3 is initiated by 2 mM ADP; State 4o (oligomycin-insensitive, i.e., Complex V-independent) is induced by 2.5 μM oligomycin and State 3u (FCCP uncoupled maximal respiratory capacity) by 4 μM FCCP. Finally, 1.5 μg/ml antimycin A was injected at the end of the assay.
# [6] = system: electron transport chain (Complex I, Complex II, Complex IV); test: Mitochondrial electron flow assay; assay type: biochemical, mouse
# Procedure: Mitochondria were isolated from mouse liver as described above.
# For the electron flow assay, the MAS buffer was supplemented with 10 mM sodium pyruvate (Complex I substrate), 2 mM malate (Complex II inhibitor), and 4 μM FCCP, and the mitochondria are seeded the same way as described for the coupling assay. After basal readings, the sequential injections were as follows: 2 μM rotenone (Complex I inhibitor), 10 mM succinate (Complex II substrate), 4 μM antimycin A (Complex III inhibitor), and 10 mM/100 μM ascorbate/tetramethylphenylenediamine (Complex IV substrate).
# [7] = system: C. elegans; test: C. elegans lifespan analysis; assay type: in vivo, Caenorhabditis elegans; settings: for mean lifespan: 8 mM; for effect on lifespan of adult C. elegans (in words): adult worms, metabolites at 8 mM; for lifespan of subjects (in words): experiments similar to those for α-KG and 2-HG compounds, data not shown
# Procedure: Lifespan assays were conducted at 20° C. on solid nematode growth media (NGM) using standard protocols and were replicated in at least two independent experiments. […] All compounds were mixed into the NGM media after autoclaving and before solidification of the media. Assay plates were seeded with OP50 (or a designated RNAi feeding clone, see below). Worms were moved to new assay plates every 4 days (to ensure sufficient food was present at all times and to reduce the risk of mold contamination). […] For analysis concerning mutant strains, the corresponding parent strain was used as a control in the same experiment. […]
# Lifespan data is provided in FIG. 13, including sample sizes. The sample size was chosen on the basis of standards done in the field in published manuscripts. No statistical method was used to predetermine the sample size. Animals were assigned randomly to the experimental groups. […] Lifespan data were analyzed using GraphPad Prism; P-values were calculated using the log-rank (Mantel-Cox) test.
# [8] = target: T2, ATP5B (Homo sapiens, UniProt P06576); test: DARTS (drug affinity responsive target stability) with Western blotting; assay type: binding; settings: human cell lysates, Pronase digestion
# T2 construct: HeLa cells were lysed in M-PER buffer; endogenous in cells; host or cells: HeLa (alpha-KG); U87 (2-HG)
# T2 sequence (P06576 48-529): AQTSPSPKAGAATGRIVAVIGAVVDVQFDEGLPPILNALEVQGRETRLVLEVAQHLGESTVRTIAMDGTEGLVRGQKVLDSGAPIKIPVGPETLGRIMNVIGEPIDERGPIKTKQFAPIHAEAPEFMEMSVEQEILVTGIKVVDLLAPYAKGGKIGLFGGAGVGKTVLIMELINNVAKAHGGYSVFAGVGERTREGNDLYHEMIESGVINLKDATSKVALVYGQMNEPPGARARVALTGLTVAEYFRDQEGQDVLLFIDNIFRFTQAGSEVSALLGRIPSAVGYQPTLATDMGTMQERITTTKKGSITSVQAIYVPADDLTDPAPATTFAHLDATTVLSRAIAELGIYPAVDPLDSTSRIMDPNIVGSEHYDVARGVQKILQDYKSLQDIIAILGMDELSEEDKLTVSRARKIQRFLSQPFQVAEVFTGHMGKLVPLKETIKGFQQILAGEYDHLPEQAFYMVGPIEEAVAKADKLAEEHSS
# Procedure: Target identification using DARTS was conducted in accordance with methods know in the art. […] The resulting digests were separated by SDS-PAGE and visualized using SYPRO Ruby Protein Gel Stain (Invitrogen, S12000).
# GAPDH (Ambion, AM4300) was used as a negative control.
# For 2-HG experiments, DARTS was performed as described above.
# [9] = system: U87 cells; test: Assay for ATP levels in U87 cells; assay type: cell-based, human; settings: mitochondrial oxidative phosphorylation conditions, 2 hours
# Procedure: For 2-HG experiments, U87 cells were seeded in 96-well plates at 2×10^4 cells per well and treated with indicated compound for 2 hours in triplicate. ATP levels were measured using the CellTiter-Glo luminescent ATP assay (Promega, G7572); luminescence was read using Analyst HT (Molecular Devices). […] Statistical analysis was performed using GraphPad Prism (unpaired t-test).
# [10] = system: U87 cells; test: Oxygen consumption rate in U87 cells (2-HG experiments); assay type: cell-based, human
# Procedure: For 2-HG experiments, OCR and ECAR measurements were made using a Seahorse XF-24 analyzer (Seahorse Bioscience) (Wu, et al. Am J Physiol Cell Physiol 292, C125-136 (2007)). U87 cells were seeded in Seahorse XF-24 cell culture microplates at 50,000 cells per well in DMEM supplemented with 10% FBS and either 10 mM glucose or 10 mM galactose, and incubated 0/N at 37° C. in 5% CO2. […] Cells were washed in unbuffered DMEM (pH 7.4, 10 mM glucose) immediately prior to measurement, and maintained in this buffer with indicated concentrations of compound. OCR or ECAR were measured 3 times under basal conditions and normalized to protein concentration per well. Statistical analysis was performed using GraphPad Prism (unpaired t-test, two-tailed, two-sample unequal variance).
# [11] = system: U87 cells; test: Cell growth and viability assays in U87 cells; assay type: cell-based, human
# Procedure: IDH1(R132H) mutant or IDH1(WT) expressing U87 cells were as reported (Li, et al. Neuro Oncol 15, 57-68). […] All the cells were cultured at 37° C. and 5% CO2. Cells were transfected with indicated siRNA using Thermo Scientific DharmaFECT Transfection Reagent 1 by following the manufacturer's instructions.
# as §1
# [12] = system: U87 cells
# Procedure: Cells were cultured for 24 hours, rinsed with PBS, and medium containing [1,2-^13C]glucose (1 g/L) added. […] Cells were scraped off, transferred to an Eppendorf tube, and 10 nmol norvaline as well as 400 ml chloroform added to each sample. For the metabolite extraction, samples were vortexed for 5 minutes on ice, spun down, and the aqueous layer transferred into a glass vial and dried. Metabolites were resuspended in 70% ACN, and 5 ml sample loaded onto a Phenomenex Luna 3u NH2 100A (150×2.0 mm) column. The chromatographic separation was performed on an UltiMate 300RSLC (Thermo Scientific) with mobile phases A (5 mM NH4AcO, pH 9.9) and B (ACN) and a flow rate of 300 ml / minutes. […] TraceFinder 3.1 (Thermo Scientific) was used to quantify metabolites as area under the curve using retention time and accurate mass measurements (≤3 ppm). Relative amounts of metabolites were calculated by summing up all isotopomers of a given metabolite.
# [13] = system: ADP import into the mitochondria; test: Assay for ADP import; assay type: biochemical; settings: mouse liver mitochondria, 600 μM; (R) P=0.4237, (S) P=0.1623
# Procedure: Freshly prepared mice liver mitochondria were suspended at 1 μg/μl in medium consisting of 220 mM mannitol, 70 mM sucrose, 2 mM HEPES, 2.74 μM antimycin A, 5 μM rotenone, 1 mM
# EGTA, and 10 mM potassium phosphate buffer, pH 7.4. The mitochondria suspension was incubated with designated drug for 30 minutes in 37° C. After incubation, the suspension was transferred to ice for 10 minutes incubation. Afterwards, 100 μM [^3H]ADP (specific radioactivity, 185 kBq/pmol) was added, and the mixture was immediately vortexed and incubated for 20 seconds on ice. The reaction was terminated by addition of 10 μM carboxyatractyloside, and the mixture was centrifuged at 10,000 g for 10 minutes at 4° C. After centrifuge, the supernatant was collected for reading and the pellet was washed twice with the same medium supplemented with 10 μM carboxyatractyloside. After washing, the pellet was lysed by the addition of 0.2 ml of 1% SDS. The radioactivity of the lysate and supernatant was determined by TRI-CARB 2300 TR liquid scintillation analyzer. The ADP-ATP translocation rate was determined by the ratio of the pellet versus the sum reading of the pellet and supernatant.
# [14] = system: mTOR; test: Assay for mammalian TOR (mTOR) pathway activity; assay type: cell-based, human; settings: U87 cells
# From the text: Specific antibodies used: P-S6K T389 (Cell Signaling Technology, 9234), S6K (Cell Signaling Technology, 9202S), P-4E-BP1 S65 (Cell Signaling Technology, 9451S), 4E-BP1 (Cell Signaling Technology, 9452S), P-AKT S473 (Cell Signaling Technology, 4060S), AKT (Cell Signaling Technology, 4691S), P-ULK1 S757 (Cell Signaling Technology, 6888), ULK1 (Cell Signaling Technology, 4773S), and GAPDH (Santa Cruz Biotechnology, 25778).
# [15] = system: AMPK; test: AMPK (T172) phosphorylation by Western blotting; assay type: cell-based, human; settings: WI-38 cells; higher concentration of octyl α-KG
# Procedure: Western blotting was performed with specific antibodies against P-AMPK T172 (Cell Signaling Technology, 2535S) and AMPK (Cell Signaling Technology, 2603S). […] Number of GFP::LGG-1 containing puncta was quantitated using ImageJ. Bars indicate the mean. […] HEK-293 (Panel d) or HeLa (Panel e) cells were lysed in M-PER buffer (Thermo Scientific, 78501) with the addition of protease inhibitors (Roche, 11836153001) and phosphatase inhibitors (50 mM NaF, 10 mM β-glycerophosphate, 5 mM sodium pyrophosphate, 2 mM Na3VO4). Protein concentration of the lysate was measured by BCA Protein Assay kit (Pierce, 23227). […] Pronase (Roche, 10165921001) digestions were performed for 20 minutes at room temperature, and stopped by adding SDS loading buffer and immediately heating at 95° C. for 5 minutes (for Panel d) or 70° C. for 10 minutes (for Panel e). Samples were subjected to SDS-PAGE on 4-12% Bis-Tris gradient gel (Invitrogen, NP0322BOX) and Western blotted with specific antibodies against ATP5B (Santa Cruz, sc58618), mTOR (Cell Signaling Technology, 2972), or GAPDH (Ambion, AM4300). ImageJ was used to quantify the mTOR/GAPDH and ATP5B/GAPDH ratios.
# [16] = system: C. elegans; test: Assay for autophagy in C. elegans (GFP::LGG-1 puncta); assay type: in vivo, Caenorhabditis elegans
# Procedure: Statistical analysis was performed using Microsoft Excel (t-test, two-tailed, two-sample unequal variance).
structure (smiles),measurement,setting,value
"O=C(O)CCC(O)C(=O)O (stereo not shown) [2-HG, 2-hydroxypentanedioate]",cell growth,[1],Growth inhibition
same,cell growth,[2],Growth inhibition
same,cell growth,[3],Growth inhibition
same,cell growth,[4],Growth inhibition
"CCCCCCCCOC(=O)CCC(=O)C(=O)O [5-octyl α-KG, 5-(Octyloxy)-2,5-dioxopentanoic acid]","coupling assay, 1-octyl versus 5-octyl ester",[5],identical results
same,"electron flow assay, 1-octyl versus 5-octyl ester",[6]; mouse liver mitochondria,identical results
"O=C(O)CC[C@@H](O)C(=O)O [(R)-2-HG, 2-hydroxyglutaric acid]",mean lifespan,"[7]; FIG. 14 Panel B, vehicle 14.0",20.0 days of adulthood
same,effect on lifespan of adult C. elegans (in words),[7],increase the lifespan
same,binding to ATP5B by DARTS,[8],bind
"O=C(O)CC[C@H](O)C(=O)O [(S)-2-HG, 2-hydroxyglutaric acid]",mean lifespan,"[7]; FIG. 14 Panel C, vehicle 15.7",20.7 days of adulthood
same,effect on lifespan of adult C. elegans (in words),[7],increase the lifespan
same,binding to ATP5B by DARTS,[8],bind
N[C@H](CCC(=O)O)C(=O)O [D-glutamate],lifespan of subjects (in words),[7],increases the lifespan
N[C@@H](CCC(=O)O)C(=O)O [L-glutamate],lifespan of subjects (in words),[7],increases the lifespan
CC(C)C[C@H](N)C(=O)O [Leu],mean lifespan,"[7]; FIG. 14 Panel B, vehicle 14.0",13.2 days of adulthood
CSCC[C@H](N)C(=O)O [Met],mean lifespan,"[7]; FIG. 14 Panel B, vehicle 14.0",14.7 days of adulthood
O=C([O-])CCC(=O)C(=O)[O-].[Na+].[Na+] [Na2α-KG],mean lifespan,"[7]; FIG. 14 Panel C, vehicle 15.7",21.5 days of adulthood
CCCCCCCCOC(=O)C(O)CCC(=O)O (stereo not shown) [octyl 2-HG],ATP content,[9],decreased
same,ATP synthase dependent (oligomycin sensitive) oxygen consumption rate,[10]; U87 cells,decreased
same,respiration as indicated by OCR,[10]; U87 cells in glucose media,decreased
same,state 3 respiration,"[5]; 600 μM, octanol vehicle",decreases
same,state 4o or 3u respiration,"[5]; 600 μM, octanol vehicle",not
same,"Complex I, Complex II, or Complex IV respiration","[6]; 30 minute treatment, 600 μM",No difference
same,growth rate,"[11]; glucose medium, to a lesser extent, not shown",reduced
same,growth rate,"[11]; glucose-free medium, 400 μM and 800 μM",decreased growth rate
same,accumulation of 2-HG in treated cells,[12],20-100 fold
"CCCCCCCCOC(=O)[C@H](O)CCC(=O)O [octyl (R)-2-HG, 1-Octyl (R) 2-hydroxypentanedioate]",viability upon glucose starvation,[11]; 400 μM and 800 μM,decreased
same,ADP import,[13],does not affect
"CCCCCCCCOC(=O)[C@@H](O)CCC(=O)O [octyl (S)-2-HG, 1-Octyl (S) 2-hydroxypentanedioate]",viability upon glucose starvation,[11]; 400 μM and 800 μM,decreased
same,ADP import,[13],does not affect
"CC[C@H]1/C=C/C=C/C[C@@H](C)[C@H](O)[C@@](C)(O)C(=O)[C@@H](C)[C@H](O)[C@@H](C)C(=O)[C@@H](C)[C@H](O)[C@@H](C)/C=C/C(=O)O[C@@H]2[C@H](C)[C@H](CC1)O[C@]1(CC[C@H](C)[C@H](C[C@@H](C)O)O1)[C@H]2C [oligomycin, reference compound]",increase of mean lifespan of N2 worms,"[7]; 40 μM, from young adult stage",32.3%
same,effect on lifespan of adult C. elegans (in words),[7],extends the lifespan
same,ATP content,[9],decreased
same,phosphorylation of mTOR substrates,[14],decreased
same,P-AMPK (T172),[15],increased
same,autophagy (GFP::LGG-1 puncta),"[16]; CeTOR(RNAi) worms, oligomycin",does not augment
same,autophagy (GFP::LGG-1 puncta),"[16]; L3 epidermis, oligomycin 40, α-KG 8 mM, versus vehicle",significantly higher
